These results are taken from patent US10160755B2 (Plexxikon Inc., priority 2015, dated 2018).

One assay deals with T1, FLT3-ITD (Homo sapiens, UniProt P36888).
T1 construct: FLT3-ITD; Invitrogen #PV6190
T1 sequence (P36888 1-993): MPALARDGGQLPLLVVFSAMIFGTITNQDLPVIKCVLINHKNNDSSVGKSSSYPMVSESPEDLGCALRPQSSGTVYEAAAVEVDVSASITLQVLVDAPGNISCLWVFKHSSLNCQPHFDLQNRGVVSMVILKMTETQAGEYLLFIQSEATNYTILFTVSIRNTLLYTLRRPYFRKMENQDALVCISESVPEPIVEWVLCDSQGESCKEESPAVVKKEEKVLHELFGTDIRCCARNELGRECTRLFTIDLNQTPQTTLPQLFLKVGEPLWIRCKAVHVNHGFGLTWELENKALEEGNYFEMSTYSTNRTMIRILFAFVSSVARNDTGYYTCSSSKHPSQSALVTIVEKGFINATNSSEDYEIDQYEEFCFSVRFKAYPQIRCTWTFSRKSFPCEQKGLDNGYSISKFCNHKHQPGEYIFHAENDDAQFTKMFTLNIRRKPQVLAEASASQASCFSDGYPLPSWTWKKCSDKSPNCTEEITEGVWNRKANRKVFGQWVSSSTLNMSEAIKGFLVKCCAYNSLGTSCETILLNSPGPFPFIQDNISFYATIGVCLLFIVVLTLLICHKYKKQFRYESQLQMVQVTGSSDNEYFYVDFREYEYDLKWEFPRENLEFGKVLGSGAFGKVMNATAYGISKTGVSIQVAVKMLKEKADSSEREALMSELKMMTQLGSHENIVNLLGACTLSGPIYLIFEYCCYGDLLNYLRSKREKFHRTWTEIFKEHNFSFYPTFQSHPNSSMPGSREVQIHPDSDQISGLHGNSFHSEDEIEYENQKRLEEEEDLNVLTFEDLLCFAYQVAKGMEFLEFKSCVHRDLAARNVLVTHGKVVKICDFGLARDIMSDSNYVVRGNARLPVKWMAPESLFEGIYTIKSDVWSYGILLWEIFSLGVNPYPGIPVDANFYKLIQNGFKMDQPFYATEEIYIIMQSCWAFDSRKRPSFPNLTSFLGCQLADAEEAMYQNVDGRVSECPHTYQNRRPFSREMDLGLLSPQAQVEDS
The assay is described as follows: FLT3-ITD biochemical kinase assay (AlphaScreen). The source says: (§1) In order to determine the effect of compounds on FLT3 catalytic activity, kinase assays using recombinant enzymes and AlphaScreen® technology have been established. When the kinases are catalytically active, they phosphorylate a biotinylated peptide substrate on tyrosine residues. Using AlphaScreen® technology, the ability of the compounds to affect the catalytic activity of the kinases can be measured quantitatively. The peptide substrate is immobilized by the AlphaScreen® Streptavidin Donor beads and, upon phosphorylation by a tyrosine kinase, can bind to AlphaScreen® Anti-Phosphotyrosine (PY20) Acceptor beads. Upon excitation of these beads with laser light at 680 nm, singlet oxygen is produced. This singlet oxygen is rapidly quenched, unless the AlphaScreen® Anti-Phosphotyrosine (PY20) Acceptor beads are in close proximity, in which case a proximity signal can be measured at 580 nm. In the presence of catalytic activity, there is a very strong proximity signal. Selective kinase inhibitors affect a decrease in this proximity signal through a decrease in tyrosine phosphorylation of the peptide substrate.
(§2) Substrate • Poly (Glu4-Tyr) Peptide, biotin conjugate [Biotin-GG(EEEEY)10EE (SEQ ID NO: 4)] • UBI/Millipore #12-440 • Final concentration=30 nM
(§3) Adenosine Triphosphate (ATP) • Sigma #A-3377 • Final concentration for IC50 determination=10 μM (FLT3-D835Y) or 100 μM (FLT3 or FLT3-ITD) • Detection Reagent • AlphaScreen® Phosphotyrosine (PY20) Assay Kit • Perkin-Elmer #6760601M • Final concentration=10 μg/mL
(§4) Centrifuge 1 minute, shake to mix, and incubate as follows:
(§5) • Mix Streptavidin Donor beads at 6× final concentration in Stop/Detection buffer. • Add 5 μL Streptavidin Donor beads to the reaction plate. Centrifuge 1 minute, shake to mix, and incubate at room temperature for 20 minutes. • Mix Anti-Phosphotyrosine (PY20) Acceptor beads at 6× final concentration in Stop/Detection buffer. • Add 5 μL Anti-Phosphotyrosine (PY20) beads to the reaction plate. • Centrifuge 1 minute, shake to mix, and incubate at room temperature for 60 minutes. • Read plate on Wallac EnVision™ 2103 Multilabel Reader. In Vivo Model System Testing
As to `Cc1cc(-c2cnc3[nH]cc(-c4ccc5ncn(C(C)(C)C)c5c4)c3c2)cnc1C#N` [P-393, 5-[3-(3-tert-butylbenzimidazol-5-yl)-1H-pyrrolo[2,3-b]pyridin-5-yl]-3-methyl-pyridine-2-carbonitrile], the half-maximal inhibitory concentration (IC50) is 0.0001 to 1 µM. The molecule `CC(C)(C)n1cnc2ccc(-c3c[nH]c4ncc(-c5cnc(C(=O)O)nc5)cc34)cc21` [P-402, 5-[3-(3-tert-butylbenzimidazol-5-yl)-1H-pyrrolo[2,3-b]pyridin-5-yl]pyrimidine-2-carboxylic acid] came in with an IC50 of 0.0001 to 1 µM. In turn, `CC(C)(C)n1cnc2ccc(-c3c[nH]c4ncc(-c5cccc(OCC(=O)O)c5)cc34)cc21` [P-374, 2-[3-[3-(3-tert-butylbenzimidazol-5-yl)-1H-pyrrolo[2,3-b]pyridin-5-yl]phenoxy]acetic acid] displayed an IC50 of 0.0001 to 1 µM. For the molecule `Cc1cc(-c2cnc3[nH]cc(-c4ccc5ncn(C(C)(C)C)c5c4)c3n2)ccn1` [P-403, 7-(3-tert-butylbenzimidazol-5-yl)-2-(2-methyl-4-pyridyl)-5H-pyrrolo[2,3-b]pyrazine], the IC50 was in the range of 0.0001 to 1 µM. As to `CC(C)(C)n1cnc2ccc(-c3c[nH]c4ncc(-c5cnc(N)nc5)cc34)cc21` [P-397, 5-[3-(3-tert-butylbenzimidazol-5-yl)-1H-pyrrolo[2,3-b]pyridin-5-yl]pyrimidin-2-amine], the IC50 was in the range of 0.0001 to 1 µM. In turn, `C=CCS(=O)(=O)Nc1cccc(-c2cnc3[nH]cc(-c4ccc5ncn(C(C)(C)C)c5c4)c3c2)c1` [P-375, N-[3-[3-(3-tert-butylbenzimidazol-5-yl)-1H-pyrrolo[2,3-b]pyridin-5-yl]phenyl]prop-2-ene-1-sulfonamide] gave an IC50 of 0.0001 to 1 µM. Still for that read-out and setting: next, `CC(C)(C)n1cnc2ccc(-c3c[nH]c4ncc(-c5cncnc5)cc34)cc21` [P-399, 1-tert-butyl-6-(5-pyrimidin-5-yl-1H-pyrrolo[2,3-b]pyridin-3-yl)benzimidazole]: 0.0001 to 1 µM.

For another assay, the target named is T2, FLT3-D835Y (Homo sapiens, UniProt P36888, D835Y).
T2 construct: purchased Invitrogen PV3967
T2 sequence (P36888 27-993 D835Y): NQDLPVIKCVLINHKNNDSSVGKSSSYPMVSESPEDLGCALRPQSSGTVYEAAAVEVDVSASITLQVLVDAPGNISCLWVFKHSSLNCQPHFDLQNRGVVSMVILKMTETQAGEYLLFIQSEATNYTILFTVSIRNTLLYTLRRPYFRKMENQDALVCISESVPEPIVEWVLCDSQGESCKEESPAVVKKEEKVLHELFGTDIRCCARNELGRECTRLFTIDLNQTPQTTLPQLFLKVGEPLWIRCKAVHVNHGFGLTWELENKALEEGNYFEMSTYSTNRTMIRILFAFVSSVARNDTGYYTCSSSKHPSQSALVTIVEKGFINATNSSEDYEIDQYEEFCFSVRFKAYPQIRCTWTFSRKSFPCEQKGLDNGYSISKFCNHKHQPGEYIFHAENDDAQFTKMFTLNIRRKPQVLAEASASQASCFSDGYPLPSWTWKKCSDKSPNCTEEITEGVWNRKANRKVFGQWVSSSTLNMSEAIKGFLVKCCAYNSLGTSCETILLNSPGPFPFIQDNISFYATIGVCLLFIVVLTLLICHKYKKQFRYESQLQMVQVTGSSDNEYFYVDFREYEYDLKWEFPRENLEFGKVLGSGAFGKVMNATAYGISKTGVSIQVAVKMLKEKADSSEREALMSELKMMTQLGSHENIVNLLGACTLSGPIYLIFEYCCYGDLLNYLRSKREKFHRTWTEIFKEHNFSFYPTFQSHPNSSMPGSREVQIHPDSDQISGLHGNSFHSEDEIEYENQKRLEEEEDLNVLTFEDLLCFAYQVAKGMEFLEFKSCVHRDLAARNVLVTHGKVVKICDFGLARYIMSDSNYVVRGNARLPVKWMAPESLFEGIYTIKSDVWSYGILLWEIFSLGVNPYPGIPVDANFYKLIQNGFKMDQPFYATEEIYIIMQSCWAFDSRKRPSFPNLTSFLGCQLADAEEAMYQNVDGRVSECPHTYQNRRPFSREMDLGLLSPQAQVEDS
The assay is described as follows: FLT3-D835Y biochemical kinase assay (AlphaScreen).
Description: as §1, §2, §3, §4, §5
The molecule `CC(C)(C)n1cnc2ccc(-c3c[nH]c4ncc(NS(=O)(=O)c5cccc(C#N)c5)cc34)cc21` [P-233, N-[3-(3-tert-butylbenzimidazol-5-yl)-1H-pyrrolo[2,3-b]pyridin-5-yl]-3-cyano-benzenesulfonamide] had an IC50 of 0.0001 to 1 µM. In the case of `O=S(=O)(c1cccc(-c2cnc3[nH]cc(-c4ccc5ncsc5c4)c3n2)c1)N1CCCC1` [P-171, 6-[2-(3-pyrrolidin-1-ylsulfonylphenyl)-5H-pyrrolo[2,3-b]pyrazin-7-yl]-1,3-benzothiazole], the IC50 was in the range of 0.0001 to 1 µM.

In turn, `Cn1cnc2ccc(-c3c[nH]c4ncc(-c5ccc(Cl)c(C#N)c5)cc34)cc21` [P-140, 2-chloro-5-[3-(3-methylbenzimidazol-5-yl)-1H-pyrrolo[2,3-b]pyridin-5-yl]benzonitrile] displayed an IC50 of 0.0001 to 1 µM. The molecule `O=S(=O)(c1ccc(-c2cnc3[nH]cc(-c4ccc5ncsc5c4)c3n2)cc1)N1CCCC1` [P-160, 6-[2-(4-pyrrolidin-1-ylsulfonylphenyl)-5H-pyrrolo[2,3-b]pyrazin-7-yl]-1,3-benzothiazole] came in with an IC50 of 0.0001 to 1 µM. Still for that read-out and setting: next, `COc1cc(-c2cnc3[nH]cc(-c4ccc5ncn(-c6ccc(F)cc6)c5c4)c3c2)cc(OC)n1` [P-198, 5-(2,6-dimethoxy-4-pyridyl)-3-[3-(4-fluorophenyl)benzimidazol-5-yl]-1H-pyrrolo[2,3-b]pyridine]: 0.0001 to 1 µM. As to `CC(C)S(=O)(=O)Nc1cccc(-c2cnc3[nH]cc(-c4ccc5ncsc5c4)c3n2)c1` [P-184, N-[3-[7-(1,3-benzothiazol-6-yl)-5H-pyrrolo[2,3-b]pyrazin-2-yl]phenyl]propane-2-sulfonamide], the IC50 was in the range of 0.0001 to 1 µM. Regarding `Cn1cnc2ccc(-c3c[nH]c4ncc(-c5ccc(S(=O)(=O)N6CCCC6)cc5)nc34)cc21` [P-148, 7-(3-methylbenzimidazol-5-yl)-2-(4-pyrrolidin-1-ylsulfonylphenyl)-5H-pyrrolo[2,3-b]pyrazine], the IC50 is 0.0001 to 1 µM. As for `COc1cc(-c2cnc3[nH]cc(-c4ccc5ncsc5c4)c3n2)cc(OC)n1` [P-172, 6-[2-(2,6-dimethoxy-4-pyridyl)-5H-pyrrolo[2,3-b]pyrazin-7-yl]-1,3-benzothiazole], the 50% inhibitory concentration (IC50) was in the range of 0.0001 to 1 µM. `Cn1cc(-c2cnc3[nH]cc(-c4ccc5ncsc5c4)c3n2)ccc1=O` [P-182, 5-[7-(1,3-benzothiazol-6-yl)-5H-pyrrolo[2,3-b]pyrazin-2-yl]-1-methyl-pyridin-2-one] registered an IC50 of 0.0001 to 1 µM. On the same count and under the same terms, the same measure for `COc1cnc2[nH]cc(-c3ccc4[nH]ncc4c3)c2c1` [P-003, 3-(1H-indazol-5-yl)-5-methoxy-1H-pyrrolo[2,3-b]pyridine]: 1 to 10 µM; for `COc1cc(-c2cnc3[nH]cc(-c4ccc5ncsc5c4)c3n2)ccc1C#N` [P-183, 4-[7-(1,3-benzothiazol-6-yl)-5H-pyrrolo[2,3-b]pyrazin-2-yl]-2-methoxy-benzonitrile]: 0.0001 to 1 µM; for `COc1cc(-c2cnc3[nH]cc(-c4ccc5ncn(-c6ccc(F)cc6)c5c4)c3n2)cc(OC)n1` [P-205, 2-(2,6-dimethoxy-4-pyridyl)-7-[3-(4-fluorophenyl)benzimidazol-5-yl]-5H-pyrrolo[2,3-b]pyrazine]: 0.0001 to 1 µM. Same read-out and setting: next, `N#Cc1cc(-c2cnc3[nH]cc(-c4ccc5ncn(-c6ccc(F)cc6)c5c4)c3c2)ccc1F` [P-209, 2-fluoro-5-[3-[3-(4-fluorophenyl)benzimidazol-5-yl]-1H-pyrrolo[2,3-b]pyridin-5-yl]benzonitrile]: 0.0001 to 1 µM; `COc1cc(-c2cnc3[nH]c(C)c(-c4ccc5ncn(C)c5c4)c3c2)ccn1` [P-112, 5-(2-methoxy-4-pyridyl)-2-methyl-3-(3-methylbenzimidazol-5-yl)-1H-pyrrolo[2,3-b]pyridine]: 0.0001 to 1 µM.
